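Growth conditions: 96-well plates. Treatment: test compound, 48 hours, 5 concentrations. Analysis: linear interpolation between bracketing concentrations; unreached endpoints set to highest concentration. GI50 = concentration required for 50% inhibition of growth.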 Calls of active or inactive are those of the source. Cut-off read from the data, not from the text of the source: active = GI50 up to about 1.1 µM and inactive = higher.
Assays:
Assay in all cases: NCI anticancer screen, dose series, 48 h
[1] = tested on: UACC-62
[2] = tested on: NCI-H460
[3] = tested on: SK-OV-3
[4] = tested on: OVCAR-5
[5] = tested on: PC-3
[6] = tested on: MDA-MB-231
[7] = tested on: MCF7
[8] = tested on: COLO 205
[9] = tested on: UACC-257
[10] = tested on: OVCAR-8
[11] = tested on: 786-0
[12] = tested on: DU-145
[13] = tested on: OVCAR-4
[14] = tested on: A549
[15] = tested on: HL-60
[16] = tested on: OVCAR-3
[17] = tested on: MDA-MB-435
[18] = tested on: SR

Measured: GI50

Cc1ccc(S(=O)(=O)NC(=O)NCC(N)=O)cc1
inactive: [1] > 100 µM | [2] > 100 µM | [3] > 100 µM | [4] > 100 µM | [5] > 100 µM | [6] > 100 µM | [7] > 100 µM | [8] > 100 µM | [9] > 100 µM | [10] > 100 µM | [11] > 100 µM | [12] > 100 µM | [13] > 100 µM | [14] > 100 µM | [15] > 100 µM

CC(/C=C/C(O)=C1/C(=O)CNC1=O)=C\[C@@H](C)[C@H]1O[C@@]2(C)O[C@H](C(=O)[C@@H]3O[C@@]32C)[C@@H]1C
inactive: [1] 16.7 µM | [16] 18.9 µM | [3] 21.5 µM | [4] 18.3 µM | [5] 14 µM | [6] 18.4 µM | [17] 28.2 µM | [7] 19.7 µM | [8] 20.7 µM | [9] 15.3 µM | [10] 20.2 µM | [11] 16.7 µM | [12] 18.9 µM | [15] 11.7 µM

COc1cccc2c(NNc3ccccc3)c3ccc([N+](=O)[O-])cc3nc12
inactive: [1] 6.41 µM | [18] 18.7 µM | [16] 50.2 µM | [2] 32.3 µM | [3] 53.6 µM | [4] > 100 µM | [5] 14.7 µM | [6] 43.6 µM | [17] 18.1 µM | [7] 26.4 µM | [8] 46.3 µM | [9] 29.9 µM | [10] 31.1 µM | [11] 21.2 µM | [12] 73.6 µM | [13] 42 µM | [14] 24.2 µM

O=C(c1ccccc1)N1C(=S)NC(=N/c2ccccc2)/C1=N\c1ccccc1
inactive: [1] > 100 µM | [18] > 100 µM | [2] > 100 µM | [3] > 100 µM | [4] > 100 µM | [5] > 100 µM | [6] > 100 µM | [17] > 100 µM | [8] > 100 µM | [9] > 100 µM | [10] > 100 µM | [11] > 100 µM | [12] > 100 µM | [13] > 100 µM | [14] > 100 µM | [15] > 100 µM

O=S(=O)(O)c1cc(S(=O)(=O)O)c2c(Nc3ccnc4ccccc34)ccc(S(=O)(=O)O)c2c1
inactive: [1] > 100 µM | [16] > 100 µM | [2] > 100 µM | [3] > 100 µM | [4] > 100 µM | [5] > 100 µM | [6] > 100 µM | [17] > 100 µM | [7] > 100 µM | [8] > 100 µM | [9] > 100 µM | [10] > 100 µM | [11] > 100 µM | [12] > 100 µM | [13] > 100 µM | [14] > 100 µM | [15] > 100 µM

O=S(=O)(O)c1ccc(/N=N\c2c(O)ccc3cc(Br)ccc23)cc1
inactive: [1] > 100 µM | [18] > 100 µM | [16] > 100 µM | [3] > 100 µM | [4] > 100 µM | [5] > 100 µM | [6] > 100 µM | [17] > 100 µM | [8] > 100 µM | [9] > 100 µM | [10] > 100 µM | [11] > 100 µM | [12] > 100 µM | [13] > 100 µM | [14] > 100 µM

O=C(c1cccs1)N1CCCN(C(=O)c2cccs2)C1=S
inactive: [1] > 100 µM | [16] > 100 µM | [3] > 100 µM | [4] > 100 µM | [5] > 100 µM | [6] > 100 µM | [17] > 100 µM | [7] > 100 µM | [8] > 100 µM | [9] > 100 µM | [10] > 100 µM | [11] > 100 µM | [12] > 100 µM | [15] > 100 µM

CNc1nc(OC)c2c(n1)n(C)c[n+]2C [HETEROMINE B]
inactive: [1] > 100 µM | [16] 62.7 µM | [2] > 100 µM | [3] > 100 µM | [4] > 100 µM | [5] > 100 µM | [6] > 100 µM | [17] > 100 µM | [8] > 100 µM | [9] > 100 µM | [10] > 100 µM | [11] > 100 µM | [12] > 100 µM | [14] 73.8 µM | [15] > 100 µM

Reference: ChEMBL document CHEMBL1201862, “PubChem BioAssay data set” (2004)
